Measurements reported in patent US8629186B2, “Polymer micelles containing anthracyclines for the treatment of cancer” (Intezyne Technologies, Inc., priority 2009, dated 2014).
Read-outs that look alike come from different tables or passages of the source.

Legend:
[1] = Rat pharmacokinetics of daunorubicin micelles compared to free daunorubicin (Example 54); format: in vivo, Fisher rats; conditions: plasma
Protocol: The delivery vehicle for drug administration was isotonic saline.
This study was repeated, and the micelles were injected in the same rats seven days after the first injection. The pharmacokinetic results are shown in the table below, and graphed in FIG. 22.

786-0 cells = assay: Cytotoxicity of daunorubicin micelles compared to free daunorubicin, 72 hours, Cell-Titer Glo; format: cell-based; conditions: Homo sapiens, 786-0, 72 h
Protocol: (§1) All cell lines were obtained from ATCC (Manassas, Va.). Media and supplements were obtained from Cell Gro (Manassas, Va.). HT-1080 cells were maintained in Eagle's Minimum Essential Medium supplemented with 10% FBS, 2 mM L-Glutamine, 1 mM sodium pyruvate, and 100 units/mL of penicillin and streptomycin. […] Cells were treated in triplicate. […] It should be noted that the IC50 values of the daunorubicin micelles are very similar to free daunorubicin.

HT-1080 cells = assay: as above; format: cell-based; conditions: Homo sapiens, HT-1080, 72 h
Protocol: as §1

MG-63 cells = assay: as above; format: cell-based; conditions: Homo sapiens, MG-63, 72 h
Protocol: as §1

SKOV-3 cells = assay: as above; format: cell-based; conditions: Homo sapiens, SK-OV-3, 72 h
Protocol: as §1

[2] = Pharmacokinetics of crosslinked DOX loaded micelles in mice (Example 29); conditions: athymic nude mice, 15 mg/kg fast IV bolus tail vein, plasma doxorubicin
Protocol: Athymic nude mice were injected with 15 mg/kg of either doxorubicin, crosslinked dox loaded micelles (IT-143, Example 24), or dox loaded micelles (Example 23) by a fast IV bolus into the tail vein with an injection volume of 0.2-0.4 mL. The delivery vehicle for drug administration was isotonic saline. Mouse blood was collected from mice into K2-EDTA tubes by heart puncture at time points of 5 minutes, 15 minutes, 1 hour, and 4 hours. Plasma was isolated by centrifugation at 1000 RPM for 5 minutes, and 150 uL of extraction solution (ice cold methanol/100 ng/mL daunorubicin internal standard) was added to 50 uL of each plasma sample. Samples are then vortexed for 10 minutes, centrifuged at 13,000 RPM for 10 minutes, and 150 uL of the supernatant is transferred to HPLC vials for analysis.
(§2) Samples were analyzed on a Waters Alliance 2695 equiped with a 2475 fluorescence detector (Ex=470 nm; Em=580). A 5 μL sample injection was made onto a Waters 4 μm Nova Pak C18 (3.9×150 mm) at 30° C. with a flow rate of 0.750 mL per minute of 10 mM phosphate buffer (pH=1.4), methanol and acetonitrile (gradient from 70/10/20 to 40/10/50 for buffer/methanol/acetonitrile was made over eight minutes).

[3] = rat, in vivo, iv, 10 mg/kg
Protocol: The delivery vehicle for drug administration was isotonic saline. Rat blood was collected from the catheter into K2-EDTA tubes […] at time points of 1, minute, 5 minutes, 15 minutes, 1 hour, 4 hours, 8 hours and 24 hours. Plasma was isolated by centrifugation at 1000 RPM for 5 minutes, and 150 uL of extraction solution (ice cold methanol/100 ng/mL daunorubicin internal standard) was added to 50 uL of each plasma sample. Samples were then vortexed for 10 minutes, centrifuged at 13,000 RPM for 10 minutes, and 150 uL of the supernatant is transferred to HPLC vials for analysis.
as §2

Row | Compound | Cmax ([1]; Fisher rats, 10 mg/kg fast IV bolus, Day 0 (first injection)) [ng/mL] | AUC ([1]; Fisher, rat, intravenous, 10 mg/kg, repeat experiment, same rats seven days after the first injection) [ng·h/mL] | Cmax ([1]; Fisher, rat, intravenous, 10 mg/kg, repeat experiment, same rats seven days after the first injection, read-out: Cmax) [ng/mL] | IC50 (786-0 cells) [µM] | IC50 (HT-1080 cells) [µM] | IC50 (MG-63 cells) [µM] | IC50 (SKOV-3 cells) [µM] | AUC [2] [ng·h/mL] | Cmax [2] [ng/mL] | T½ [2] [h] | AUC [3] [ng·h/mL] | Cmax [3] [ng/mL]
1 | COc1cccc2c1C(=O)c1c(O)c3c(c(O)c1C2=O)C[C@@](O)(C(C)=O)C[C@@H]3O[C@H]1C[C@H](N)[C@H](O)[C@H](C)O1 [Daunorubicin, daunorubicin] | 3290 | 3540 | 10600 | 0.231 ± 0.011 | 0.546 ± 0.057 | 0.231 ± 0.011 | 0.2 ± 0.012 |  |  |  |  | 
2 | COc1cccc2c1C(=O)c1c(O)c3c(c(O)c1C2=O)C[C@@](O)(C(=O)CO)C[C@@H]3O[C@H]1C[C@H](N)[C@H](O)[C@H](C)O1 [Free Dox, doxorubicin] |  |  |  |  |  |  |  | 200 | 210 | 5.4 | 2610 | 9760
